Measured values: a melting point compilation (Tetko et al.; mined from patent text by program, amines drawn as free bases though some values may be those of a salt)

| Structure (SMILES) | melting point |
| --- | --- |
| Oc1ccc2c(c1)COc1c-2cc2ccc(O)cc2c1Cl | 230 to 231 °C |
| CCC(Br)C(=O)Nc1c(C)cccc1C (stereo not given) | 180 to 190 °C |
| C[C@H]1CCCC(C)(C)[C@@H]1[C@H](O)c1ccc(OC(F)(F)F)c(F)c1 | 60.3 to 62.2 °C |
| Cc1cc(CCCCCOc2ccc(C3=NCCO3)cc2)on1 | 102 to 104 °C |
| O=C(NC/C=C\COc1cc(CN2CCCCC2)ccn1)NC1CCCC1 | 121 to 124 °C |
| C(=Cc1nc2ccccc2o1)c1ccccc1 | 78 to 79 °C |
| CNC(=O)N(O)Cc1cccc(Nc2ccccc2C(=O)OC)c1C | 173 to 175 °C |
| CSc1cc2n(c(=O)n1)C(c1ccccc1)N=C2 (stereo not given) | 198 to 199 °C |
| Cc1cccc(Cl)c1-n1nc(C(C)C)c(C(N)=O)c1N | 72 to 74 °C |
| Cc1cccc(NC(=O)CN2CCN(c3ccccc3C)CC2)c1 | 104 to 106 °C |
| COCN1C(=O)COc2ccc([N+](=O)[O-])cc21 | 120 to 122 °C |
| CC(COc1ccc(-n2cncn2)cc1)(NS(=O)(=O)Cc1ccccc1)C(N)=O (stereo not given) | 195 to 198 °C |
| O=C1C(O)OCN1c1cccc(C(F)(F)F)c1 (stereo not given) | 75 to 76 °C |
| CNC(=S)Nc1cc(OC)c(-c2ccc(C[C@H](NC(=O)c3c(Cl)cccc3Cl)C(=O)O)cc2)c(OC)c1 | 197 to 198 °C |
| CCOC(=O)c1ccc(OCCCCCCCCCCC(C(=O)CC)C(=O)CC)cc1 | 45 to 46 °C |
| COC(=O)CCc1nsc2ccc(-n3c(=O)cc(C(F)(F)F)n(C)c3=O)cc12 | 176 to 178 °C |
| CC(=O)Nc1c(C(=O)c2cc(-c3ccccc3)no2)[nH]c2cc(Cl)ccc12 | 209 to 210 °C |
| OCc1cnoc1-c1ccc(Cl)c(Cl)c1 | 101 to 102 °C |
| O=C(NCCCn1cncn1)c1ccc(Cl)nc1 | 87 to 89 °C |
| CC(=C1SC(=O)NC1=O)c1ccc(SCCc2ccccc2)cc1 | 183 to 187 °C |
| COc1ccc(-c2ccc(=O)[nH]n2)c(OCC(O)CNC(C)(C)C)c1 (stereo not given) | 159 to 161 °C |

| Structure (SMILES) | melting point |
| --- | --- |
| O=[N+]([O-])c1cnn2c(-c3ccncc3)ccnc12 | 241 to 244 °C |
| [N-]=[N+]=NCC1CN(c2cc(F)c(-c3cccnc3)c(F)c2)C(=O)O1 (stereo not given) | 97 to 98 °C |
| Nc1nccc(OCC(F)(F)F)c1N | 126 to 128 °C |
| COc1ccc(-c2cnn(-c3cccc(C(=O)O)c3)c2)cc1 | 238 to 239 °C |
| CCCCNC(=O)NCCCn1c(CCCC)nc2c(N)nc3ccccc3c21 | 186 °C |
| Cc1ccc(Nn2c(-c3ccccc3)c(C)[nH]c2=S)cc1Cl | 190 °C |
| Nc1ncc(-c2ccc(=O)[nH]n2)c(-c2cccc(F)c2)n1 | 249 °C |
| CC(C)C(=O)NC1CCc2c(c3cc(C(N)=O)ccc3n2Cc2cccc(F)c2)C1 (stereo not given) | 192 to 194 °C |
| N#Cc1cc(F)ccc1O | 121 to 122 °C |
| O=S(CCCCOc1ccc(C2=C(c3ccccc3)CCCc3cc(O)ccc32)cc1)CCCC(F)(F)C(F)(F)F (stereo not given) | 155 °C |
| Cc1cccc(CO)c1CNc1cc(Br)cc2c1nc(C)n2C | 215 to 216 °C |
| CC(=O)SCCc1cn2cccnc2n1 | 122 to 124 °C |
| CN(C)c1ccc2cc(-c3ccnc(SCCO)c3C#N)ccc2c1 | 210 to 212 °C |
| CC(C)=CCN1CCc2c(sc(N)c2C(=O)c2ccc(Br)cc2)C1 | 73 to 75 °C |
| COC(=O)c1cc(C)cc(CNO)c1 | 99 to 100 °C |
| COc1ccnc(CCc2nc3cc(-c4ccc(S(=O)(=O)N5CCC6(CC5)OCCO6)cc4)cnc3[nH]2)c1 | 121 to 122 °C |
| CCOc1cc(N)ccn1 | 88 to 89 °C |
| CCOC(=O)C(C#N)C1(C#N)C(=O)N(Cc2ccc(Br)cc2F)c2c(C)cccc21 (stereo not given) | 130 to 132 °C |
| O=C(O)CN1CCN(CCNC(=O)c2cc3ccc(C4OC(CO)C(O)C(O)C4O)cc3oc2=O)CC1 (stereo not given) | 140 to 143 °C |
| COc1ccccc1-c1nc(=S)n(Cc2ccccc2)[nH]1 | 142 to 144 °C |
| CS(=O)(=O)CCCCCn1c(C(F)(F)F)nc2c(N)nc3ccccc3c21 | 192 to 195 °C |

Continued, values first:

| melting point | Structure (SMILES) |
| --- | --- |
| 154 °C | c1ccc2sc(-c3ccnc(Nc4ccc5c(c4)OCCO5)c3)cc2c1 |
| 175 to 177 °C | Cc1c(C(N)=O)oc2ccc(Cc3cccnc3)cc12 |
| 205 °C | O=C(O)c1ccc(-c2cc3ccccc3[nH]2)cc1 |
| 206 °C | c1ccc(-c2nnc3cc(-c4cccnc4)c(OCc4ccccn4)nn23)cc1 |
| 118 to 119 °C | CC(C)c1nc(CCCOCc2ccccc2)[nH]c1Sc1cc(Cl)cc(Cl)c1 |
| 132 to 134 °C | O=c1c(OC(F)F)cn(-c2cccc(C(F)(F)F)c2)nc1-c1ccnn1-c1ccccc1 |
| 141 to 142 °C | O=c1c(-c2cc[nH]n2)coc2ccccc12 |
| 129 to 131 °C | CCCC(CCC)c1ccc(CN(C)c2ccc(-c3coc(CN(CC(=O)O)Cc4ccccc4)n3)cc2)cc1 |
| 104 °C | Cc1cc(I)ccc1Nc1c(C2=NC(C)(C)CO2)ccc(F)c1F |
| 181 to 186 °C | N#Cc1[nH]c([N+](=O)[O-])c(Br)c1Br |
| 110 to 112 °C | O=C(c1ccccc1)C1CNC(=S)C1 (stereo not given) |
| 175 to 176 °C | CC(C)(C)OC(=O)NCCCCNC1(c2ccccc2Cl)C(=O)Nc2ccc(Cl)cc21 (stereo not given) |
| 72 to 74 °C | CC(=O)C(C(=O)c1ccccc1)N(C)C (stereo not given) |
| 125 to 126 °C | OCC(O)CN1CCN(C(c2ccccc2)c2ccccc2)CC1 (stereo not given) |
| 149 to 153 °C | Cn1c(COc2cccc(N)c2)nc2ccccc21 |
| 104 to 107 °C | COc1ccc(NC(=O)C(Cl)Cl)cn1 |
| 108 to 110 °C | CCCc1cc(O)nc(NCC)n1 |

| melting point | Structure (SMILES) |
| --- | --- |
| 135 to 137 °C | Cc1c(NC(=O)CC(CSC(=O)Cc2ccccc2)c2ccccc2)cccc1C(=O)O (stereo not given) |
| 200 °C | O=c1[nH]c2ccc(CCN3CCN(c4cccc5cccnc45)CC3)cc2o1 |
| 118 to 119 °C | CCOc1c(CN2CCCCC2)c2c(c3c1OC(C)(C)C3)C(c1cccc(N(S(C)(=O)=O)S(C)(=O)=O)c1)=NC(C)(C)C2 |
| 125 to 134 °C | COC(=O)[C@@H](C)Nc1ncccc1NC(=O)c1ccc(Cl)cc1 |
| 108 °C | Cc1cccc(C(=O)c2ccc(Cl)cc2)c1 |
| 208 to 210 °C | CC(C)(C(=O)O)c1ccc2cc(O)ccc2c1 |
| 78 to 79 °C | Cc1sc(-c2ccccc2)nc1COc1ccc(CCl)cn1 |
| 178 to 179 °C | CCn1ncc2c(C(F)(F)F)cc(=O)[nH]c21 |
| 167 to 168 °C | COC(=O)[C@@H](Cc1ccccc1)Oc1c(Br)cc(-c2c3ccccc3c(Br)c3sc(C)c(C)c23)cc1C1CCCC1 |
| 160 to 161 °C | COc1ccc(C(=O)Nc2ccccc2)cc1Nc1cccc(C)c1 |
| > 300 °C | Cc1nc(S)c2[nH]cnc2n1 |
| 125 to 129 °C | Oc1ccc2nc(-c3ccc(O)c(F)c3)cc(C#Cc3ccccc3)c2c1 |
| > 340 °C | CC(C)(C)OC(=O)N=C(NC(=O)OC(C)(C)C)Nc1ccc2c(c1)Cc1cc(NC(=NC(=O)OC(C)(C)C)NC(=O)OC(C)(C)C)ccc1-2 |
| 107 to 108 °C | CCc1cc(C(=O)NCc2ccc(-c3ccc(OC(F)F)cc3)cc2)n(C)n1 |
| 120 °C | CCN1CC(c2ccccc2)=C(OCCN2CCCCC2)C1=O |
| 133 to 139 °C | Fc1c(Cl)cc(C(/C=C/c2ccc3[nH]ccc3c2)C(F)(F)F)cc1Cl (stereo not given) |
